Ki and inhibition data for twelve compounds are collected here from US5686486A, “4-hydroxy-benzopyran-2-ones and 4-hydroxy-cycloalkyl[b]pyran-2-ones useful to treat retroviral infections” (priority 1995, dated 1997).

The target of experiment [1] is T1, HIV-1 protease (Human immunodeficiency virus type 1 group M subtype B, UniProt P04585). The experiment is described as follows: biochemical. Particulars: read-out: HIV-1 FITC KI. As for the experimental part: Determination of Ki values utilizes the same materials and equipment employed for percent inhibition studies. Two-fold serial dilutions are made for a given inhibitor from 2, 3 or 4 starting concentrations with a total of 24, 36 or 48 individual inhibitor concentrations. These dilutions are performed utilizing the BioMek robotics system. The assay consists of 10 μL of 40 nM HIV-1 protease, 10 μL of the various inhibitor concentrations, and 20 μL of 200 μM substrate (40 μL total). The reaction is allowed to proceed for 90 min at room temperature, terminated with 40 μL of avidin beads and processed (supra vide). An inhibitor with a known Ki is run in parallel to verify the validity of the assay. The data is processed utilizing a computer program employing a nonlinear least square analysis of the data to generate the Ki values.

The target in experiment [2] is T1, HIV-1 protease. The experiment is described as follows: biochemical. Summed up:
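Percent inhibition derived from fluorescent cleavage product separated by filtration after streptavidin-bead capture of intact biotin/FITC substrate. Reaction: enzyme (10 μl, 0.1 μM stock) with substrate (20 μl, 0.2 μM stock) and compound, 1 h at room temperature in dark, pH 5.5 acetate buffer with 1.0 M NaCl and 0.05% NP-40.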

Where [3] appears, read: dose 3.300 uM, read-out: HIV-1 Protease % Inhib.
Where [4] appears, read: dose 10.000 uM, read-out: HIV-1 Protease % Inhib.
Setting [5] is: dose 30.000 uM, read-out: HIV-1 Protease % Inhib.

Several values for one entry are separate records, joined by “and”; a condition that tells them apart may be missing. Equal entries are not always repeated. Where two headings read alike, the source gives them in different places.

For the compound `O=c1oc2c(c(O)c1C(c1ccccc1)C1CC1)CCCCC2` (single isomer, unassigned) [Example 230, (R or S)-3-(Cyclopropylphenylmethyl)-6,7,8,9-tetrahydro-4-hydroxy-cyclohepta[b]pyran-2(5H)-one], on HIV-1 protease [1], the Ki (as a rule, the equilibrium dissociation constant of an inhibitor or competing ligand from its target) was 264 nM and 280 nM.
Consider `O=c1oc2c(c(O)c1C(c1ccccc1)C1CC1)CCCCC2` (single isomer, unassigned) [Example 231, (R or S)-3-(Cyclopropylphenylmethyl)-6,7,8,9-tetrahydro-4-hydroxy-cyclohepta[b]pyran-2(5H)-one], for which the Ki at HIV-1 protease [1] was 109 nM and 126 nM.
As for `CCCC1CCCCCc2c1oc(=O)c([C@@H](c1ccccc1)C1CC1)c2O` (single isomer, unassigned) [Example 233, 3-(R)-(Cyclopropylphenylmethyl)4-hydroxy-10-(R or S)-propyl-5,6,7,8,9,10-hexahydro-cycloocta[b]pyran-2-one], on HIV-1 protease [1], the Ki is 147 nM and 180 nM and 302 nM.
As for `CCCC1CCCCCc2c1oc(=O)c([C@@H](c1ccccc1)C1CC1)c2O` (single isomer, unassigned) [Example 234, 3-(R)-(Cyclopropylphenylmethyl)4-hydroxy-10-(R or S)-propyl-5,6,7,8,9,10-hexahydro-cycloocta[b]pyran-2-one], the Ki at HIV-1 protease [1] is 12.8 nM and 13 nM and 18.8 nM.
For the compound `CCCC1CCCCCc2c1oc(=O)c([C@H](c1ccccc1)C1CC1)c2O` (single isomer, unassigned) [Example 236, 3-(S)-(Cyclopropylphenylmethyl)-4-hydroxy-10-(R or S)-propyl-5,6,7,8,9,10-hexahydro-cycloocta[b]pyran-2-one], on HIV-1 protease [1], the inhibition constant Ki is 10 nM and 8 nM.
The same measure, in the same setting: the figure for `CCCC1CCCCCc2c1oc(=O)c([C@H](c1ccccc1)C1CC1)c2O` (single isomer, unassigned) [Example 237, 3-(S)-(Cyclopropylphenylmethyl)-4-hydroxy-10-(R or S)-propyl-5,6,7,8,9,10-hexahydro-cycloocta[b]pyran-2-one] is 60 nM and 117 nM; for `O=c1oc2c(c(O)c1[C@@H](c1ccccc1)C1CC1)CCCCCC2` [Example 228] it is 34.8 nM.
With `CC(C)(C)OC(=O)NCc1ccc(C(c2c(O)c3c(oc2=O)CCCCCC3)C2CC2)o1` (stereo not drawn) [Example 480, 3-(α-Cyclopropyl(5-(N-carbo-t-butoxy)aminomethyl)furfur-2-yl)-4-hydroxy-5,6,7,8,9,10-hexahydrocycloocata[b]pyran-2-one], at HIV-1 protease [2] (setting [3]), the inhibition at 3.3 µM is 19.2%. Also, on HIV-1 protease [2] (setting [4]), the inhibition at 10 µM is 45.5%. Moreover, at HIV-1 protease [2] (setting [5]), the inhibition at 30 µM was 78.2%.
Regarding `O=c1oc2c(c(O)c1C(c1ccccc1)c1ccccc1)CCCCCC2` [Example 481, 3-(Diphenylmethyl)-5,6,7,8,9,10-hexahydro-4-hydroxy-2H-cycloocta[b]pyran-2-one], the inhibition at 0.37 µM on HIV-1 protease [2] (read-out: HIV-1 Protease % Inhib, dose 0.370 uM) was 118%. Besides, the inhibition at 1.1 µM at HIV-1 protease [2] (read-out: HIV-1 Protease % Inhib, dose 1.100 uM) was 51.2%. For the same compound, at HIV-1 protease [2] (read-out: HIV-1 Protease % Inhib, dose 3.300 uM), the inhibition at 3.3 µM came to 85.3%. Besides, the inhibition at 10 µM on HIV-1 protease [2] (read-out: HIV-1 Protease % Inhib, dose 10.000 uM) is 98%. For the same compound, the inhibition at 30 µM on HIV-1 protease [2] (read-out: HIV-1 Protease % Inhib, dose 30.000 uM) was found to be 107%.
For the compound `O=c1oc2c(c(O)c1C(Cc1ccccc1)Cc1ccccc1)CCCCC2` [Example 482, 3-(1,3-Diphenyl-2-propyl)-5,6,7,8,9-pentahydro-4-hydroxy-2H-cyclohepta[b]pyran-2-one], the inhibition at 3.3 µM at HIV-1 protease [2] (setting [3]) was 20%. In addition, the inhibition at 10 µM at HIV-1 protease [2] (setting [4]) came to 63.2%. Besides, on HIV-1 protease [2] (setting [5]), the inhibition at 30 µM was 92.6%.
The matching figures for `Nc1cc(N)cc(C(c2c(O)c3c(oc2=O)CCCCCC3)C2CC2)c1` (centres unmarked) [Example 484, 3-[Cyclopropyl-(3,5-diamino-phenyl)-methyl]-4-hydroxy-5,6,7,8,9,10-hexahydro-cycloocta[b]pyran-2-one]: 17.7%, 37.2% and 51.6%.
As to `O=c1oc2c(c(O)c1C(c1cc(NS(=O)(=O)c3cccc4cccnc34)cc(NS(=O)(=O)c3cccc4cccnc34)c1)C1CC1)CCCCCC2` (centres unmarked) [Example 485, N-[3-[Cyclopropyl-(4-hydroxy-2-oxo-5,6,7,8,9,10-hexahydro-2H-cycloocta[b]pyran-3-yl)-methyl]-5-8-quinolinesulfonylamino-phenyl]-8-quinolinesulfonamide], on HIV-1 protease [2] (setting [4]), the inhibition at 10 µM worked out at 13.1%. The inhibition at 30 µM at HIV-1 protease [2] (setting [5]) came out at 54.2%.
